From paper PMC11605156, “Triterpenoids from Ganoderma lucidum inhibit cytochrome P450 enzymes interfering with the metabolic process of specific clinical drugs” (Frontiers in Pharmacology, 2024)

Tests used:
CYP3A4 = CYP3A4 (Homo sapiens, UniProt P08684); experiment: CYP3A4 inhibition, probe/drug metabolism in human liver microsomes; details: human, human liver microsomes, pH 7.4, probe midazolam 5 μM, Residual activity (%) CYP3A4, HLM 0.5 mg/mL, midazolam 5 μM, 30 min
Method: (§1) The total volume of the in vitro metabolic incubation system is 200 μL. The probe substrate concentration in the system is shown in Supplementary Table S1. […] The reaction sample was preheated in a constant temperature mixer at 37°C. Then NADP^+ was added to the system to initiate the reaction. The reaction time is 30 min, and 100 μL acetonitrile will be added on time to quickly terminate the reaction, followed by centrifugation at 4°C and 20,000 g for 20 min. The supernatant was analyzed using liquid chromatography tandem mass spectrometry (LC-MS/MS), and the activity of CYP enzymes was evaluated by the generation of probe metabolites. The mass spectrometry information of probe substrates is shown in Supplementary Table S3.
(§2) The isolated triterpenoids (1–66) were used to establish a compounds library. The inhibitory effects of 66 triterpenoids from G. lucidum on seven subtypes of CYP enzymes (CYP1A2, 2A6, 2D6, 2B6, 2C9, 2C19, 3A4) were evaluated followed the above-mentioned experimental procedures.
(§3) For 16 clinical drugs metabolized by CYP enzymes, potential DDI studies were conducted on triterpenoids (6, 25) of G. lucidum, and IC50 values were measured.
(§4) Clinical drugs: Phenacetin, melatonin, clozapine and riluzole are metabolized by CYP1A2. Bupropion, artemisinin, efavirenz and sertraline are metabolized by CYP2B6. Diclofenac, valsartan, glimepiride and glibenclamide are metabolized by CYP2C9. Midazolam, imatinib, simvastatin and diltiazem are metabolized by CYP3A4.
(§5) Table S1. The information of probes for CYPs activity assay
(§6) Table S2. Information of clinical drugs

CYP2C19 = CYP2C19 (Homo sapiens, UniProt P33261); experiment: CYP2C19 inhibition, S-mephenytoin probe in human liver microsomes; details: human, human liver microsomes, pH 7.4, probe S-mephenytoin 50 μM, Residual activity (%) CYP2C19, HLM 0.5 mg/mL, S-mephenytoin 50 μM, 30 min
Chain of CYP2C19 (P33261 whole entry): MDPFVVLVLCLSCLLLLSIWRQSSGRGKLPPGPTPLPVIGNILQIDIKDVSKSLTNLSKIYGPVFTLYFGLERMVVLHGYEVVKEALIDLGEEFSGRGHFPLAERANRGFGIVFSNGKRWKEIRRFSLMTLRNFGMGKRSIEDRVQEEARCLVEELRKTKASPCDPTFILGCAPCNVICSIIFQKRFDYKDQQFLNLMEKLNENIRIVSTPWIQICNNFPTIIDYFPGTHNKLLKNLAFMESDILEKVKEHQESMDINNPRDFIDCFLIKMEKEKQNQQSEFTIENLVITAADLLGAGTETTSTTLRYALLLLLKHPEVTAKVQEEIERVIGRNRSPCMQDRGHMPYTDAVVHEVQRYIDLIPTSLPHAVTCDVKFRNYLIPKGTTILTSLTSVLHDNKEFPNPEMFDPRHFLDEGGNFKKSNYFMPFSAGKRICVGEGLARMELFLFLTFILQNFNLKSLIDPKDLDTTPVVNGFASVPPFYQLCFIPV
Method: as §1, §2, §5

CYP2D6 = CYP2D6 (Homo sapiens, UniProt P10635); experiment: CYP2D6 inhibition, dextromethorphan probe in human liver microsomes; details: for activity at 30 min: human, human liver microsomes, pH 7.4, probe dextromethorphan 5 μM, Residual activity (%) CYP2D6, HLM 0.5 mg/mL
Chain of CYP2D6 (P10635 whole entry): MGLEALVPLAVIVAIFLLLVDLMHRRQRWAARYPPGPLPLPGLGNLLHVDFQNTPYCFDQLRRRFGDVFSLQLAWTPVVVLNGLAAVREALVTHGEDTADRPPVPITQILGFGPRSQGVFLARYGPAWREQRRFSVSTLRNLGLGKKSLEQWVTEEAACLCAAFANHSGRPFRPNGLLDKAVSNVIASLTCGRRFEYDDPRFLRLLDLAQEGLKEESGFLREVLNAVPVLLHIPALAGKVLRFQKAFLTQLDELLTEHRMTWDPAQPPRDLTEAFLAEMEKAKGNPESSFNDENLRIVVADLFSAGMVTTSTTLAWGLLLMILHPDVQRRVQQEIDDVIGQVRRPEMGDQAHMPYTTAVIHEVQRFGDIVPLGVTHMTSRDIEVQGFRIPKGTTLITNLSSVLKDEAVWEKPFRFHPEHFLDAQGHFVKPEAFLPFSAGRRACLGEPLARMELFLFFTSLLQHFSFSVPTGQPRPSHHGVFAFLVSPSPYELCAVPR
Method: as §1, §2, §5

CYP1A2 = biological target: T1, CYP1A2 (Homo sapiens, UniProt P05177); experiment: CYP1A2 inhibition, probe/drug metabolism in human liver microsomes (LC-MS/MS); details: for activity at 30 min: Residual activity (%) CYP1A2, HLM 0.5 mg/mL
T1 sequence (P05177 1-516): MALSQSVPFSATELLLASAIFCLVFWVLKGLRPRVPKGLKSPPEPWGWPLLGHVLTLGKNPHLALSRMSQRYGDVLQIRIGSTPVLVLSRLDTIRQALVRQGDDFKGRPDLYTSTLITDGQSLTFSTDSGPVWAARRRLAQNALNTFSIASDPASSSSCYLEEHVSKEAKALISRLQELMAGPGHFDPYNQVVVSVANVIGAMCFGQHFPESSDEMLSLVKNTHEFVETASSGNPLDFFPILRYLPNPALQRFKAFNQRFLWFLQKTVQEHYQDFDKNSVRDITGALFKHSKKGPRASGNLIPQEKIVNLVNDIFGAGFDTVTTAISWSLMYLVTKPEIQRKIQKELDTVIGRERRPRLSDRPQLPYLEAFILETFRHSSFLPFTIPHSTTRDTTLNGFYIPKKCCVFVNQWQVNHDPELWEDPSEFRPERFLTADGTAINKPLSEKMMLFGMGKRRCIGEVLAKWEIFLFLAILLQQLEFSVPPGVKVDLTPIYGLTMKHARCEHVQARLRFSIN
Method: as §1, §2, §3, §4, §5, §6

CYP2A6 = biological target: T2, CYP2A6 (Homo sapiens, UniProt P11509); experiment: CYP2A6 inhibition, coumarin probe in human liver microsomes; details: human, human liver microsomes, pH 7.4, probe coumarin 2 μM, Residual activity (%) CYP2A6, HLM 0.5 mg/mL
T2 sequence (P11509 1-494): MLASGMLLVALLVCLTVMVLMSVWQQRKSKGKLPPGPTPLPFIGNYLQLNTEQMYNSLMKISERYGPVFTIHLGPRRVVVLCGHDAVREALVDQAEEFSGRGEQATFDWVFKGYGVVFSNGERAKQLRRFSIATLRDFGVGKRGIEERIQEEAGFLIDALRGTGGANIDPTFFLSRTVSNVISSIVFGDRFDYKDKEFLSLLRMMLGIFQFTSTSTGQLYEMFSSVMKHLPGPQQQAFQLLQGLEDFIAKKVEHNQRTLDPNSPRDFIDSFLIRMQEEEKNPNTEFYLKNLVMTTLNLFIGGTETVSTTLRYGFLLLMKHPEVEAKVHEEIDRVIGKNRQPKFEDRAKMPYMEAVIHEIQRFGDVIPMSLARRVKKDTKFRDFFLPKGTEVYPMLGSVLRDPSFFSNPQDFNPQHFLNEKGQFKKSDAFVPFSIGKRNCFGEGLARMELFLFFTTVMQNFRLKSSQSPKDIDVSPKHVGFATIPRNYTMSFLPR
Method: as §1, §2, §5

CYP2C9 = CYP2C9 (Homo sapiens, UniProt P11712); experiment: CYP2C9 inhibition, probe/drug metabolism in human liver microsomes; details: human, human liver microsomes, pH 7.4, probe diclofenac 4 μM, Residual activity (%) CYP2C9, HLM 0.5 mg/mL, diclofenac 4 μM, 30 min
Chain of CYP2C9 (P11712 whole entry): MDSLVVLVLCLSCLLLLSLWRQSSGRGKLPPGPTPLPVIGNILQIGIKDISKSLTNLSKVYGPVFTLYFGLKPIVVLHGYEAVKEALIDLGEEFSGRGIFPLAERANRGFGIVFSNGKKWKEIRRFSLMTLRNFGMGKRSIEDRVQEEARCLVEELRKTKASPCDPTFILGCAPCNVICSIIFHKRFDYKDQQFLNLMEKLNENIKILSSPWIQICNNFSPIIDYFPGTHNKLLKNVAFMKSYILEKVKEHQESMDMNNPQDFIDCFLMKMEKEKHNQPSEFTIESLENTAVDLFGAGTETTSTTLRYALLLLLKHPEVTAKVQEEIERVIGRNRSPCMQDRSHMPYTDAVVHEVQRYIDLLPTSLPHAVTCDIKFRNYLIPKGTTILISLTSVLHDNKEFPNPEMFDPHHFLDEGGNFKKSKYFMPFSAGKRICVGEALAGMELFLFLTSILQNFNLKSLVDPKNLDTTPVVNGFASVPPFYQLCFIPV
Method: as §1, §2, §3, §4, §5, §6

CYP2B6 = biological target: T3, CYP2B6 (Homo sapiens, UniProt P20813); experiment: CYP2B6 inhibition, probe/drug metabolism in human liver microsomes; details: human, human liver microsomes, pH 7.4, probe bupropion 75 μM, Residual activity (%) CYP2B6, HLM 0.5 mg/mL, bupropion 75 μM, 30 min
T3 sequence (P20813 1-491): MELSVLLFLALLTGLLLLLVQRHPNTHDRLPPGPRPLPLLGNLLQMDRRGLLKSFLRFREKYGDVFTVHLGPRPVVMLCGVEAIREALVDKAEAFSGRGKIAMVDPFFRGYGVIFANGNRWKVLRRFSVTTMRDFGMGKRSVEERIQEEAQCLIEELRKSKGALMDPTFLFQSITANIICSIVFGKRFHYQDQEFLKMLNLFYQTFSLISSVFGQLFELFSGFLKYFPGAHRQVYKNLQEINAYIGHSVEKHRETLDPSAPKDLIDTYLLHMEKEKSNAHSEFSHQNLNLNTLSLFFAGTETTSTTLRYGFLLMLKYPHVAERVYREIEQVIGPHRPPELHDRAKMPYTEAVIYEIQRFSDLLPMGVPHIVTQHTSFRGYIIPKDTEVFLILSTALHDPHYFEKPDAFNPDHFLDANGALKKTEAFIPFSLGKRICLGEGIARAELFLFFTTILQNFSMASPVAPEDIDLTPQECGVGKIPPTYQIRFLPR
Method: as §1, §2, §3, §4, §5, §6

[1] = Pharmacokinetics of probe drugs in rats with or without dichloromethane extract; details: rat
Method: SD rats (Male, weighing 220 g ± 20 g) were divided into a dichloromethane administration group and a control group with 6 rats in each group. Both groups were given probe substrate drugs by gavage. […] 200 μL blood samples were taken from the rat jugular vein at 0.167, 0.333, 0.5, 0.75, 1, 2, 3, 4, 6, 8, 10, and 12 h after the administration of the probe substrate. After precipitation of proteins by with 600 μL acetonitrile via centrifugation […] at 4°C at 3,500 rpm for 10 min. The supernatant was detected using liquid chromatography-tandem mass spectrometry (LC-MS/MS). The mass spectrometry information of the probe drug is shown in Supplementary Table S3. Animal experiments in this study were approved by the Animal Ethics Committee of the Dalian Medical University.

[2] = IC50 against CYP 1A2, substrate phenacetin 40 μM, HLM
[3] = human, human liver microsomes, pH 7.4, probe phenacetin 40 μM, phenacetin 40 μM, 30 min
[4] = gavage, drug alone (control group), n = 6

Chain of CYP3A4 (P08684 whole entry): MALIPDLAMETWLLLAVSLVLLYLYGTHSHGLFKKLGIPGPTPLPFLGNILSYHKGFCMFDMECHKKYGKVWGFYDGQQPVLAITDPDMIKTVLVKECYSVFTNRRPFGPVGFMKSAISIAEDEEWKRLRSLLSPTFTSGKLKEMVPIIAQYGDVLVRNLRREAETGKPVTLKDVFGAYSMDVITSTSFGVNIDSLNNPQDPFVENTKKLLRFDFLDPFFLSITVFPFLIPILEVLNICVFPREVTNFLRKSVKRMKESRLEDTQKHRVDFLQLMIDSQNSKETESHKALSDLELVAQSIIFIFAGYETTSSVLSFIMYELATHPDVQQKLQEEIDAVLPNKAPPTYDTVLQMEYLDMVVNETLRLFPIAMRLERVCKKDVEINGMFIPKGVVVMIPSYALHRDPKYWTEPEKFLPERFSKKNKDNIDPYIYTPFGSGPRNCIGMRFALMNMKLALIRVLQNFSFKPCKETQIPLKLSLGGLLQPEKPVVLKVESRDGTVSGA

SMILES | activity at 30 min (CYP3A4) [%] | activity at 30 min (CYP2C19) [%] | activity at 30 min (CYP2D6) [%] | IC50 (CYP1A2; [2]) [µM] | activity at 30 min (CYP1A2; [3]) [%] | activity at 30 min (CYP2A6) [%] | activity at 30 min (CYP2C9) [%] | activity at 30 min (CYP2B6) [%] | Residual activity (%) CYP2D6 (CYP2D6; HLM 0.5 mg/mL, dextromethorphan 5 μM, 30 min) [%] | Residual activity (%) CYP1A2 (CYP1A2; HLM 0.5 mg/mL, phenacetin 40 μM, 30 min) [%] | IC50 at 30 min (CYP1A2; human, human liver microsomes, pH 7.4, probe phenacetin 40 μM, IC50 against CYP 1A2, substrate phenacetin 40 μM, HLM) [µM] | AUC(0-inf) ([1]; male, SD, in vivo, po) [ng·h/mL] | AUC(0-t) ([1]; male, SD, in vivo, po) [ng·h/mL] | Cmax ([1]; male, SD, in vivo, po) [ng/mL] | Tmax ([1]; male, SD, in vivo, po) [min] | AUM [1, 4] | Cl_F_ [1, 4] | Vz_F [1, 4]
CC(=CC(=O)CC(C)C(=O)O)C1CC(=O)C2(C)C3=C(C(=O)C(O)C12C)C1(C)CCC(O)C(C)(C)C1CC3=O (centres unmarked) [Compound 17] | 97.6 ± 2.29 | 85.5 ± 2.57 | 99.4 ± 3.9 | 21.8 ± 1.15 | 54.4 ± 8.91 | 91.89 ± 0.88 | 90 ± 1.36 | 76.6 ± 7.68 | – | – | – | – | – | – | – | – | – | –
CC(CC(=O)CC(C)C1CC(=O)C2(C)C3=C(C(=O)CC12C)C1(C)CCC(=O)C(C)(CO)C1CC3O)C(=O)O (centres unmarked) [Compound 8] | 90.8 ± 3.82 | 68.6 ± 7.25 | 76.9 ± 0.9 | 11.3 ± 0.31 | 30.2 ± 3.05 | 79.1 ± 0.81 | 94.8 ± 5.64 | 91.6 ± 8.64 | – | – | – | – | – | – | – | – | – | –
CC(CC(=O)CC(C)C1CC(=O)C2(C)C3=C(C(=O)CC12C)C1(C)CCC(O)C(C)(C)C1CC3=O)C(=O)O (centres unmarked) [Compound 54] | – | 88.3 ± 3.63 | – | – | – | 82.6 ± 2.79 | 88.45 ± 0.51 | 84.1 ± 1.32 | 108.69±3.90 | 47.09±3.09 | 24.7 ± 3.38 | – | – | – | – | – | – | –
CC1(C)CCC2(C(=O)O)CCC3(C)C(=C2C1)C=CC1C2(C)CCC(O)C(C)(C)C2CCC13C (centres unmarked) [Compound 36] | 55.4 ± 1.19 | 84.38 ± 0.53 | 72.7 ± 10.4 | – | 81.9 ± 5.81 | 87 ± 1.46 | 82.9 ± 2.75 | 88.6 ± 6.9 | – | – | – | – | – | – | – | – | – | –
CC(CC(=O)CC(C)C1CC(O)C2(C)C3=C(C(=O)CC12C)C1(C)CCC(=O)C(C)(C)C1CC3=O)C(=O)O (centres unmarked) [Compound 45] | – | 70.3 ± 4.05 | 93.7 ± 8.49 | 18.2 ± 1.33 | 48.2 ± 4.71 | 90.1 ± 2.87 | 73.5 ± 6.44 | 83 ± 3.05 | – | – | – | – | – | – | – | – | – | –
Cc1ncc2n1-c1ccc(Cl)cc1C(c1ccccc1F)=NC2 [MDZ, midazolam] | – | – | – | – | – | – | – | – | – | – | – | 2340 | 2300 | 1630 | 40 ± 7.74 | 4,197.381 ± 670.735 h*ng/mL | 4,313.217 ± 497.661 mL/h/kg | 8,995.776 ± 2,395.823 mL/kg
